From the supplement of paper PMC10307832

Experiments:
Assay in all cases: relative viability (nuclei count vs DMSO), 5 days (fraction); higher = more cells survive
BEN = test system: BEN
Outline: (§1)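 Relative viability is defined as nuclei in treated wells over nuclei in vehicle wells. Duplicate plates were run and medians reported. Lung cancer cell lines in 1536-well plates were dosed by pin tool one day after seeding, with one drug or with a fixed anchor-drug dose plus five library-drug doses (not always all listed) in √10 steps, and nuclei were counted after 5 days.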

NCI-H2170 = test system: NCI-H2170
Outline: as §1

HCC-44 = test system: HCC-44
Outline: as §1

NCI-H2087 = test system: NCI-H2087
Outline: as §1

EKVX = test system: EKVX
Outline: as §1

NCI-H647 = test system: NCI-H647
Outline: as §1

LOU-NH91 = test system: LOU-NH91
Outline: as §1

PC-3 [JPC-3] = test system: PC-3 [JPC-3]
Outline: as §1

201T = test system: 201T
Outline: as §1

NCI-H650 = test system: NCI-H650
Outline: as §1

NCI-H1437 = test system: NCI-H1437
Outline: as §1

LU99A = test system: LU99A
Outline: as §1

SW 1573 = test system: SW 1573
Outline: as §1

NCI-H2085 = test system: NCI-H2085
Outline: as §1

NCI-H1975 = test system: NCI-H1975
Outline: as §1

EPLC-272H = test system: EPLC-272H
Outline: as §1

H3255 = test system: H3255
Outline: as §1

NCI-H1666 = test system: NCI-H1666
Outline: as §1

LCLC-97TM1 = test system: LCLC-97TM1
Outline: as §1

HCC-827 = test system: HCC-827
Outline: as §1

COR-L 105 = test system: COR-L 105
Outline: as §1

Compound: Nc1ccn([C@@H]2O[C@H](CO)[C@@H](O)[C@@H]2O)c(=O)n1 [Cytarabine] + C[C@@H](Oc1cc(-c2cnn(C3CCNCC3)c2)cnc1N)c1c(Cl)ccc(F)c1Cl [Crizotinib] (partner 1 µM)
- relative viability (BEN; first compound 0.005 µM): 0.605
- relative viability (BEN; first compound 0.01581 µM): 0.66
- relative viability (BEN; first compound 0.05 µM): 0.449
- relative viability (BEN; first compound 0.1581 µM): 0.311
- relative viability (BEN; first compound 0.5 µM): 0.292
- relative viability (NCI-H2170; first compound 0.01581 µM): 0.925
- relative viability (NCI-H2170; first compound 0.05 µM): 0.912
- relative viability (NCI-H2170; first compound 0.1581 µM): 0.605
- relative viability (NCI-H2170; first compound 0.5 µM): 0.483
- relative viability (HCC-44; first compound 0.005 µM): 0.776
- relative viability (HCC-44; first compound 0.01581 µM): 0.831
- relative viability (HCC-44; first compound 0.05 µM): 0.626
- relative viability (HCC-44; first compound 0.1581 µM): 0.383
- relative viability (HCC-44; first compound 0.5 µM): 0.378
- relative viability (NCI-H2087; first compound 0.005 µM): 0.702
- relative viability (NCI-H2087; first compound 0.01581 µM): 0.886
- relative viability (NCI-H2087; first compound 0.05 µM): 0.69
- relative viability (NCI-H2087; first compound 0.1581 µM): 0.731
- relative viability (NCI-H2087; first compound 0.5 µM): 0.537
- relative viability (EKVX; first compound 0.005 µM): 0.802
- relative viability (EKVX; first compound 0.01581 µM): 1.07
- relative viability (EKVX; first compound 0.05 µM): 0.827
- relative viability (EKVX; first compound 0.1581 µM): 0.368
- relative viability (EKVX; first compound 0.5 µM): 0.287
- relative viability (NCI-H647; first compound 0.005 µM): 0.613
- relative viability (NCI-H647; first compound 0.01581 µM): 0.518
- relative viability (NCI-H647; first compound 0.05 µM): 0.243
- relative viability (NCI-H647; first compound 0.1581 µM): 0.11
- relative viability (NCI-H647; first compound 0.5 µM): 0.116
- relative viability (LOU-NH91; first compound 0.005 µM): 0.753
- relative viability (LOU-NH91; first compound 0.01581 µM): 0.714
- relative viability (LOU-NH91; first compound 0.05 µM): 0.637
- relative viability (LOU-NH91; first compound 0.1581 µM): 0.511
- relative viability (LOU-NH91; first compound 0.5 µM): 0.56
- relative viability (PC-3 [JPC-3]; first compound 0.005 µM): 0.781
- relative viability (PC-3 [JPC-3]; first compound 0.01581 µM): 0.837
- relative viability (PC-3 [JPC-3]; first compound 0.05 µM): 0.78
- relative viability (PC-3 [JPC-3]; first compound 0.1581 µM): 0.712
- relative viability (PC-3 [JPC-3]; first compound 0.5 µM): 0.617
- relative viability (201T; first compound 0.005 µM): 1.04
- relative viability (201T; first compound 0.01581 µM): 0.999
- relative viability (201T; first compound 0.05 µM): 1.01
- relative viability (201T; first compound 0.1581 µM): 0.97
- relative viability (201T; first compound 0.5 µM): 1
- relative viability (NCI-H650; first compound 0.005 µM): 0.664
- relative viability (NCI-H650; first compound 0.01581 µM): 0.519
- relative viability (NCI-H650; first compound 0.05 µM): 0.353
- relative viability (NCI-H650; first compound 0.1581 µM): 0.259
- relative viability (NCI-H650; first compound 0.5 µM): 0.177
- relative viability (NCI-H1437; first compound 0.005 µM): 0.576
- relative viability (NCI-H1437; first compound 0.01581 µM): 0.817
- relative viability (NCI-H1437; first compound 0.05 µM): 0.472
- relative viability (NCI-H1437; first compound 0.1581 µM): 0.258
- relative viability (NCI-H1437; first compound 0.5 µM): 0.156
- relative viability (LU99A; first compound 0.005 µM): 0.62
- relative viability (LU99A; first compound 0.01581 µM): 0.549
- relative viability (LU99A; first compound 0.05 µM): 0.517
- relative viability (LU99A; first compound 0.1581 µM): 0.527
- relative viability (LU99A; first compound 0.5 µM): 0.498
- relative viability (SW 1573; first compound 0.005 µM): 0.83
- relative viability (SW 1573; first compound 0.01581 µM): 0.868
- relative viability (SW 1573; first compound 0.05 µM): 0.864
- relative viability (SW 1573; first compound 0.1581 µM): 0.412
- relative viability (SW 1573; first compound 0.5 µM): 0.179
- relative viability (NCI-H2085; first compound 0.005 µM): 0.718
- relative viability (NCI-H2085; first compound 0.01581 µM): 0.883
- relative viability (NCI-H2085; first compound 0.05 µM): 0.799
- relative viability (NCI-H2085; first compound 0.1581 µM): 0.552
- relative viability (NCI-H2085; first compound 0.5 µM): 0.621
- relative viability (NCI-H1975; first compound 0.005 µM): 0.801
- relative viability (NCI-H1975; first compound 0.01581 µM): 1.01
- relative viability (NCI-H1975; first compound 0.05 µM): 0.994
- relative viability (NCI-H1975; first compound 0.1581 µM): 0.667
- relative viability (NCI-H1975; first compound 0.5 µM): 0.373
- relative viability (EPLC-272H; first compound 0.005 µM): 0.667
- relative viability (EPLC-272H; first compound 0.01581 µM): 0.379
- relative viability (EPLC-272H; first compound 0.05 µM): 0.577
- relative viability (EPLC-272H; first compound 0.1581 µM): 0.326
- relative viability (EPLC-272H; first compound 0.5 µM): 0.368
- relative viability (H3255; first compound 0.005 µM): 0.76
- relative viability (H3255; first compound 0.01581 µM): 0.828
- relative viability (H3255; first compound 0.05 µM): 0.776
- relative viability (H3255; first compound 0.1581 µM): 0.724
- relative viability (H3255; first compound 0.5 µM): 0.667
- relative viability (NCI-H1666; first compound 0.005 µM): 0.794
- relative viability (NCI-H1666; first compound 0.01581 µM): 0.945
- relative viability (NCI-H1666; first compound 0.05 µM): 0.612
- relative viability (NCI-H1666; first compound 0.1581 µM): 0.358
- relative viability (NCI-H1666; first compound 0.5 µM): 0.388
- relative viability (LCLC-97TM1; first compound 0.005 µM): 0.487
- relative viability (LCLC-97TM1; first compound 0.01581 µM): 0.213
- relative viability (LCLC-97TM1; first compound 0.05 µM): 0.181
- relative viability (LCLC-97TM1; first compound 0.1581 µM): 0.115
- relative viability (LCLC-97TM1; first compound 0.5 µM): 0.106
- relative viability (HCC-827; first compound 0.005 µM): 0.593
- relative viability (HCC-827; first compound 0.01581 µM): 0.478
- relative viability (HCC-827; first compound 0.05 µM): 0.477
- relative viability (HCC-827; first compound 0.1581 µM): 0.197
- relative viability (HCC-827; first compound 0.5 µM): 0.249
- relative viability (COR-L 105; first compound 0.005 µM): 0.657
- relative viability (COR-L 105; first compound 0.01581 µM): 0.725
- relative viability (COR-L 105; first compound 0.05 µM): 0.511
- relative viability (COR-L 105; first compound 0.1581 µM): 0.393
- relative viability (COR-L 105; first compound 0.5 µM): 0.256
